Test results published in patent US20020035061A1, “COMPOSITIONS AND METHODS FOR TREATING INFECTIONS USING CATIONIC PEPTIDES ALONE OR IN COMBINATION WITH ANTIBIOTICS” (priority 1996, published 2002).
Where two headings read alike, the source gives them in different places.

How the values were obtained:
Type in all cases: cell-based
[1] = test system: A. calcoaceticus
[2] = test system: E. cloacae; details: E. cloacae strain ECL007
[3] = test system: E. coli
[4] = test system: E. faecalis
[5] = test system: E. faecium
[6] = test system: K. pneumoniae
[7] = test system: P. aeruginosa
[8] = test system: S. aureus
[9] = test system: S. epidermidis
[10] = test system: S. maltophilia
[11] = test system: S. marcescens
[12] = test system: bacterial isolates; assay: microbe, parasite or virus in culture; details: combination with Ciprofloxacin

Sequence	MIC ([1]; A. calcoaceticus strain AC001) [mg/L]	MIC [2] [mg/L]	MIC ([3]; E. coli strain ECO003) [mg/L]	MIC ([5]; E. faecium strain EFM001) [mg/L]	MIC ([6]; K. pneumoniae strain KP002) [mg/L]	MIC ([9]; S. epidermidis strain SE002) [mg/L]	MIC ([10]; S. maltophilia strain SMA001) [mg/L]	MIC ([11]; S. marcescens strain SMS004) [mg/L]	MIC ([4]; E. faecalis strain EFS002) [mg/L]	MIC ([5]; E. faecium strain EFM003) [mg/L]	MIC ([7]; P. aeruginosa strain PA004) [mg/L]	MIC ([1]; A. calcoaceticus strain AC002) [mg/L]	MIC ([3]; E. coli strain ECO005) [mg/L]	MIC ([4]; E. faecalis strain EFS001) [mg/L]	MIC ([4]; E. faecalis strain EFS008) [mg/L]	MIC ([6]; K. pneumoniae strain KP001) [mg/L]	MIC ([8]; S. aureus strain SA014) [mg/L]	MIC ([9]; S. epidermidis strain SE010) [mg/L]	MIC ([10]; S. maltophilia strain SMA002) [mg/L]	MIC ([11]; S. marcescens strain SMS003) [mg/L]	also measured
ILRRWPWWPWRRR [MBI 11B9ACN]	32	>128	8	4	32	2	16	>128													MIC ([4]; E. faecalis strain EFS004): 8 mg/L; MIC ([7]; P. aeruginosa strain PA005): >128 mg/L; MIC ([8]; S. aureus strain SA019): 2 mg/L
ILKKIPIIPIRRK [MBI 11A2CN]	>128	>128	>128		>128		>128		>128	16	>128										MIC ([8]; S. aureus strain SA004): 8 mg/L; MIC ([11]; S. marcescens strain SBS003): >128 mg/L; FIC ([12]; S. aureus SA014): 1.00; FIC ([12]; S. aureus SA093): 0.75
ILKKFPFWPWRRK [MBI 11A7CN]		>128							16	2	>128	4	8	2	4	8	4	4	64	>128	MIC ([8]; S. aureus strain SA009): 2 mg/L; MIC ([8]; S. aureus strain SA093): 1 mg/L
ILKKWPWWPWR [MBI 11G14CN]		>128	32	16	128	8		>128	32			8							128		MIC ([7]; P. aeruginosa strain PA006): >128 mg/L; MIC ([8]; S. aureus strain SA013): 0.5 mg/L
LKKWPWWPWRRK [MBI 11D1CN]	>128	>128		16	64		64		32									8		>128	MIC ([3]; E. coli strain ECO002): 16 mg/L; MIC ([7]; P. aeruginosa strain PA003): >128 mg/L; MIC ([8]; S. aureus strain SA004): 2 mg/L
ILKNPNNPWRR [MBI 11G7ACN]		>32		8	>32	4	32	>32				4			32						MIC ([3]; E. coli strain ECO002): 16 mg/L; MIC ([7]; P. aeruginosa strain PA006): >32 mg/L; MIC ([8]; S. aureus strain SA010): 1 mg/L
ILKKWPWWWRRK [MBI 11G5CN]		>128	16			2		>128	16			4				>128			64		MIC ([5]; E. faecium strain EFM002): 8 mg/L; MIC ([7]; P. aeruginosa strain PA003): >128 mg/L; MIC ([8]; S. aureus strain SA012): 4 mg/L
ILKKFPWFPWRRK [MBI 11A6CN]		>128									>128	2	16	1	8	32	4	4	128	>128	MIC ([4]; E. faecalis EFS004): 64 mg/L; MIC ([5]; E. faecium EFM003): 2 mg/L; MIC ([8]; S. aureus SA016): 2 mg/L; MIC ([8]; S. aureus strain SA093): 0.5 mg/L
ILKKWPWW PWKKK [MBI 11B10CN]		>128							64	4	>128	2	16	8	64	32	4	4	128	>128	MIC ([8]; S. aureus strain SA008): 2 mg/L; MIC ([8]; S. aureus strain SA093): 1 mg/L
ILKKWPWWPRRK [MBI 11G6CN]	>128	>128				8	>128		128	4	>128					>128				>128	MIC ([3]; E. coli strain ECO002): 32 mg/L; MIC ([8]; S. aureus strain SA006): 2 mg/L
